Assay results reported in US20240125768A1, “METHODS FOR MODULATING A SRC-1 CONDENSATE” (ETERN BIOPHARMA (SHANGHAI) CO., LTD., priority 2021, published 2024).
“Also recorded” adds a separate entry of the source.

What was measured:
[1] = tested on: YAP; experiment: Anti-YAP immunofluorescence staining in A549 cells (YAP nuclear translocation); format: cell-based; settings: anti-YAP antibody and DAPI
Description: FIG. 7H illustrates A549 cells treated with DMSO, EVG or PC(Positive compound) were stained with anti-YAP antibody and DAPI. […] Scale bar represents 40 μm.

[2] = tested on: SRC-1; experiment: Biotin-EVG competition pulldown and thermal shift assays; format: binding; settings: Flag-SRC-1, biotin-EVG, increasing concentrations of EVG
Description: FIG. 7T illustrates the lysates from SF268 cells overexpressing Flag-SRC-1 were incubated with 20 μM biotin or biotin-EVG for streptavidin-beads pull-down assays.
FIG. 7U illustrates purified Flag-SRC1 protein was incubated with EVG-Biotin in the presence of increasing concentrations of EVG and further subjected to streptavidin-beads pull-down assays.
1 μg of purified recombinant protein Flag-SRC-1 was incubated with […] biotin-EVG/DMSO in the presence of increasing concentrations of Elvitegravir (20, 40, 100, 200 uM) for 30 min (RT) and was further incubated with streptavidin-agarose (20359, Thermo Fisher Scientific) for 20 min (RT). Washing beads with PBS (3×1.5 min). The precipitates were analyzed by western blot with anti-flag antibody.
Methods: Cells (SF268 cells and HEK293FT cells were transfected with expression vector of Flag-SRC-1) were harvested and lysed in lysis buffer (20 mM TrisHCl 7.5, 150 mM NaCl, 0.5% NP40, 5% glycerin, 1% proteinase Cocktail), and then incubated with 20 µM compound with biotin tag or DMSO for 40 min at room temperature. Then incubated with 100 μL streptavidin-agarose (20359, Thermo Fisher Scientific) for 30 min at RT. The beads were washed 4 times with lysis buffer ([…] 1.5 min). And the precipitates were analyzed by western blot with anti-flag antibody. […]

[3] = tested on: BEAS-2B cell colonies; experiment: BEAS-2B colonies co-expressing SRC-1 and YAP; format: cell-based, human; settings: SRC-1 and YAP co-expressed BEAS-2B cell colonies
Description: FIG. 7X illustrates the colonies of BEAS-2B cells overexpressing with both YAP and SRC-1 treated w/o EVG.
To explore whether SRC-1 and YAP cooperate in driving tumorigenesis, normal human lung bronchial epithelium cells (BEAS-2B) was transformed with YAP and/or SRC-1.

[4] = tested on: lung cancer cell lines; experiment: Cell proliferation of lung cancer cell lines; format: cell-based
Description: FIG. 7V illustrates cell proliferation (lung cancer cells and normal cells) affected by the treatment with elvitegravir. Error bars show mean±s.e.m. (n=3).
(§1) After 6 days [or other time period as indicated] culture, cell viability was measured using CellTiter-Glo® Luminescent Cell Viability Assay (Promega, G7572) and DMSO group was used as normalization to calculate half maximal inhibitory concentration (IC50) using Graphpad Prism software.

[5] = tested on: A549 cells; experiment: Anti-proliferative effects in SRC-1 knockdown A549 cells; format: cell-based; settings: SRC-1 knockdown vs control
Description: FIG. 7W illustrates the anti-proliferative effects of EVG in SRC1 knockdown and control cells. Data represent mean±s.e.m. (n=3).
as §1

[6] = biological target: T1, SRC-1 condensates (Homo sapiens, UniProt Q15788); experiment: Live cell imaging of SRC-1 condensates; format: cell-based
T1 construct: expressed in transfected cells; host or cells: SF268
Description: (§2) Cells were grown on 24-well glass bottom plate (Cellvis, P24-1.5H-N) and images were taken with the Leica TCS SP8 confocal microscopy system using a 100× oil objective (NA=1.4). Cells were imaged on a heated stage(37° C.) and supplemented with warmed (37° C.) humidified air.
(§3) For compounds treatment assay, SF268 cells were co-transfected with YAP5SA, TEAD4-mTagBFP2 and mNeoGreen-SRC1. YAP variant YAP5SA which is insensitive to the upstream Hippo pathway, sequestered YAP in nucleus. To circumvent the limitations brought by red fluorescent proteins, TEAD condensates which have been reported to depend on YAP, were used to characterize YAP/TEAD transcriptional condensates. Six hours after transfection, SF268 cells were seeded on 24-well glass bottom plate (Cellvis, P24-1.5H-N) and compounds were added two hours later. Cells were imaged every 30 mins after EVG or other compounds were added.
(§4) Cells were grown on 24-well glass bottom plate (Cellvis, P24-1.5H-N) and images were taken with the Leica TCS SP8 confocal microscopy system using a 100× oil objective (NA=1.4). Cells were imaged on a heated stage (37° C.) and supplemented with warmed (37° C.) humidified air. […]
(§5) Data was analyzed by images collected from 100 representative fields in each group. The spots quantification was performed based on the number and intensity of the spots through green (mNeoGreen-SRC1) and blue (TEAD4-mTagBFP2) channel. […]

[7] = tested on: YAP/TEAD4 condensates; experiment: Live cell imaging of YAP/TEAD condensates; format: cell-based; settings: H1299 cells co-transfected with YAP5SA, TEAD4-mTagBFP, mNeoGreen-SRC1; 20 μM
Description: as §2, §3, §4, §5

T1 sequence (Q15788 whole entry): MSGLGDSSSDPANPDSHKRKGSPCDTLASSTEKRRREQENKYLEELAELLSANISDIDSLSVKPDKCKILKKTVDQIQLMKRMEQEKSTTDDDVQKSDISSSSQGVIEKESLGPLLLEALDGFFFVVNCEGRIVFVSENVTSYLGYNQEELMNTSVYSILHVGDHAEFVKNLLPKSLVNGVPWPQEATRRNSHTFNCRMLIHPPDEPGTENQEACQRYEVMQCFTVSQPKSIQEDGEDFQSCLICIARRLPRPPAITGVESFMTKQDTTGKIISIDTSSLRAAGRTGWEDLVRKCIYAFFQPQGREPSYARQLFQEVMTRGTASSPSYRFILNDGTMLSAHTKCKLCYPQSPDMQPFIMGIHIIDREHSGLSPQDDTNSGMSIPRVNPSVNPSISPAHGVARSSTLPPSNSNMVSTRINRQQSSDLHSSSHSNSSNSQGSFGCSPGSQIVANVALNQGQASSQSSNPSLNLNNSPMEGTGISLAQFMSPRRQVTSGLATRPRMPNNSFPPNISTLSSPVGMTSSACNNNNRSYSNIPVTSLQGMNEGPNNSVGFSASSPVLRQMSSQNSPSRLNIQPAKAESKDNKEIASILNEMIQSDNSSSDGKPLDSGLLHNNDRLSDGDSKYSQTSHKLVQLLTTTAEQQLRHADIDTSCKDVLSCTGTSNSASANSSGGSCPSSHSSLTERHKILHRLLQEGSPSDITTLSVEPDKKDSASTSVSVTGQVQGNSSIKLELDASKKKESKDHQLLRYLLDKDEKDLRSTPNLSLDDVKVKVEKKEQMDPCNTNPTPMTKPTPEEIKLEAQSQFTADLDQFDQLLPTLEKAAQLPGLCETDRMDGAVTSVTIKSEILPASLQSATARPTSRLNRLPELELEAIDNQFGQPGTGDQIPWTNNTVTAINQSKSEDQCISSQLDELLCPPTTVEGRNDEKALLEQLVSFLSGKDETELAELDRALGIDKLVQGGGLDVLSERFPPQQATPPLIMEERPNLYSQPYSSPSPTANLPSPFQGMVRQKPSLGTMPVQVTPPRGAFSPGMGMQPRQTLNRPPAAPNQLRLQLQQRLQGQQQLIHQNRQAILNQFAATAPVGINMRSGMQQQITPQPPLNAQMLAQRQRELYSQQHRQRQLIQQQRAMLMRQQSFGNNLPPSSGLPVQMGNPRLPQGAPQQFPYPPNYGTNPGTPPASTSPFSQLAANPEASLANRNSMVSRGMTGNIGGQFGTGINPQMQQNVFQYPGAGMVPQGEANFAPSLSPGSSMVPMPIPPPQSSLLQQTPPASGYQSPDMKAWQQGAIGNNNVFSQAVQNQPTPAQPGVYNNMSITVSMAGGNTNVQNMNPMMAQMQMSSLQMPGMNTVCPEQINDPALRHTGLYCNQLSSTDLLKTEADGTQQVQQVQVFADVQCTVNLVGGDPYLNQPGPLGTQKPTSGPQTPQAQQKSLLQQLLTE

binding to SRC-1, competition pulldown and thermal shift [2]: both direct and specific
SMILES: COc1cc2c(cc1Cc1cccc(Cl)c1F)c(=O)c(C(=O)O)cn2[C@H](CO)C(C)C [EVG, 6-[(3-chloro-2-fluorophenyl)methyl]-1-[(2S)-1-hydroxy-3-methylbutan-2-yl]-7-methoxy-4-oxoquinoline-3-carboxylic acid]
YAP nuclear translocation [1]: remained in nucleus; also recorded: unaffected
migratory activity at the outer colony border [3]: dramatically inhibited
proliferation of lung cancer cell lines [4]: effectively inhibited
anti-proliferative effects after inducible knockdown of SRC-1 [5]: partially resistant
SRC-1 condensates / SRC1 phase separation (LLPS) ([6]; H1299 cells co-transfected with YAP5SA, TEAD4-mTagBFP, mNeoGreen-SRC1, 20 μM): impaired; also recorded: selectively disrupted
nuclear SRC-1 puncta formation ([6]; H1299 cells expressing either mNeoGreen or mScarlet labeled SRC-1, time course): impaired the LLPS of SRC-1 in time-dependent manner; also recorded: suppressed
YAP/TEAD condensates [7]: remained intact; also recorded: but not the YAP/TEAD4 condensates
